According to US20140343480A1, “SYSTEMS, METHODS, AND COMPOSITIONS FOR CROSS-LINKING” (AVEDRO, INC., priority 2013, published 2014):
Converted amounts (≈) assume the structure as drawn. Values belong to the molecule of their own block, whether it stands above or below them.

Assays:
corneal collagen [1] = test: Biaxial extensometry (tensiometry) of corneal flaps; parameters: species or system Pig; settings: for displacement-force (corneal stiffness): 1% solution in dH2O; for displacement vs. force (corneal stiffening): 30 mW/cm^2, pulsed 1 s on/1 s off, 8 min, oxygen, vs unexposed controls
Procedure: Pig eyes were shipped overnight on ice from an abattoir (SiouxPreme, Sioux City, Iowa), rinsed in saline. Eyes were cleaned and epithelium was removed. […] If specified, eyes were placed in a beaker with a light oxygen stream for 2 minutes in the incubation chamber prior to irradiation. Corneas were pan-corneally irradiated with a top hat beam (3% root mean square) for the chosen time (4 or 8 minutes) with 365-nm light source (UV LED NCSU033B[T]; Nichia Co., Tokushima, Japan) at the chosen irradiance (30 mW/cm^2, pulsed or non-pulsed) which was measured with a power sensor (model PD-300-UV; Ophir, Inc., Jerusalem, Israel) at the corneal surface. Corneal flaps (approximately 200 μm thick) were excised from the eyes with aid of Intralase femtosecond laser (Abbot Medical Optics, Santa Ana, Calif.). The average thickness of the corneal flaps was calculated as a difference between the measurements before and after the excision from the eyes with an ultrasonic Pachymeter (DGH Technology, Exton, Pa.). The flaps were placed into a biaxial extensometer (CellScale Biotester 5000, Waterloo, ON), using biorake attachments with 5 tines spanning a width of 3 mm. Each sample was stretched at a constant rate of 4 μm/s in saline at 37° C. until sample failure. The flaps were washed with distilled water 2 times, dried with filter paper, washed with dH2O two times, and then dried in a vacuum until the weight change became less than 10% (Rotary vane vacuum pump RV3 A652-01-903, BOC Edwards, West Sussex, UK). Each flap was digested for 2.5 hours at 65° C. with 2.5 units/ml of papain (from Papaya latex, Sigma) in 1 ml of papain buffer [BBBS (pH 7.0-7.2), 2 mM L-cysteine and 2 mM EDTA]. Papain digests were centrifuged for 5 seconds at 2200×G (Mini centrifuge 05-090-100, Fisher Scientific), diluted 0.5 times with 1XBBBS and fluorescence of the solutions was measured with excitation of λex=360 nm in a QM-40 Spectrofluorometer (Photon Technology Int., London, Ontario, Canada). The fluorescence of the papain buffer was taken into account by measuring fluorescence in the absence of tissue and subtracting this value from the fluorescence of the samples.
Pig eyes were shipped overnight on ice from an abattoir (SiouxPreme, Sioux City, Iowa), rinsed in saline. Eyes were cleaned and epithelium was removed. […] Corneas were pan-corneally irradiated with a top hat beam (3% root mean square) for 4 minutes with 365-nm light source (UV LED NCSU033B[T]; Nichia Co., Tokushima, Japan) at irradiance 30 mW/cm^2, which was measured with a power sensor (model PD-300-UV; Ophir, Inc., Jerusalem, Israel) at the corneal surface. Corneal flaps (approximately 200 μm thick) were excised from the eyes with aid of Intralase femtosecond laser (Abbott Medical Optics, Santa Ana, Calif.). The average thickness of the corneal flaps was calculated as a difference between the measurements before and after the excision from the eyes with an ultrasonic Pachymeter (DGH Technology, Exton, Pa.). The flaps were then placed into a biaxial extensometer (CellScale Biotester 5000, Waterloo, ON), using biorake attachments with 5 tines spanning a width of 3 mm. Each sample was stretched at a constant rate of 4 μm/s in saline at 37° C. until sample failure. The flaps were washed with distilled water, dried in a vacuum until the weight change became less than 10% (Rotary vane vacuum pump RV3 A652-01-903, BOC Edwards, West Sussex, UK). Each flap was digested for 2.5 h at 65° C. with 2.5 units/ml of papain (from Papaya latex, Sigma) in 1 ml of papain buffer [BBBS (pH 7.0-7.2), 2 mM L-cysteine and 2 mM EDTA]. Papain digests were centrifuged for 5 seconds at 2200×G (Mini centrifuge 05-090-100, Fisher Scientific), diluted 0.5 times with 1XBBBS and fluorescence of the solutions was measured with excitation of λex=360 nm in a QM-40 Spectrofluorometer (Photon Technology Int., London, Ontario, Canada).

corneal collagen [2] = test: Papain digest fluorescence of corneal flaps (collagen cross-linking); parameters: species or system Pig; settings: for fluorescence (relative to the untreated controls, Fo) recorded at 450 nm: 1% solution in dH2O; for fluorescence of the digested corneas in the area 450 nm: 20 min soak, 30 mW/cm^2, 4 min continuous UVA, vs non-cross-linked control; for fluorescence of the corneal samples after digestion with papain (excitation 360 nm): 30 mW/cm^2, pulsed 1 s on/1 s off, 8 min, oxygen, vs controls not exposed to UV
Procedure: Corneas were pan-corneally irradiated with a top hat beam (3% root mean square) for 8 minutes (7.2 J total dose) in a cylinder filled with oxygen with 365-nm light source (pulsing 1 second on, 1 second off) (UV LED NCSU033B[T]; Nichia Co., Tokushima, Japan) at the chosen irradiance (30 mW/cm^2) which was measured with a power sensor (model PD-300-UV; Ophir, Inc., Jerusalem, Israel) at the corneal surface. Before the start of irradiation, oxygen's exposure was 2 minutes. Corneal flaps (approximately 200 μm thick) were excised from the eyes with aid of Intralase femtosecond laser (Abbot Medical Optics, Santa Ana, Calif.). The average thickness of the corneal flaps was calculated as a difference between the measurements before and after the excision from the eyes with an ultrasonic Pachymeter (DGH Technology, Exton, Pa.). The flaps were washed with distilled water two times, dried with filter paper, washed with dH2O two times, and then dried in a vacuum until the weight change became less than 10% (Rotary vane vacuum pump RV3 A652-01-903, BOC Edwards, West Sussex, UK). Each flap was digested for 2.5 hours at 65° C. with 2.5 units/ml of papain (from Papaya latex, Sigma) in 1 ml of papain buffer [BBBS (pH 7.0-7.2), 2 mM L-cysteine and 2 mM EDTA]. Papain digests were centrifuged for 5 seconds at 2200×G (Mini centrifuge 05-090-100, Fisher Scientific), diluted 0.5 times with BBBS and fluorescence of the solutions was measured with excitation of λex=360 nm in a QM-40 Spectrofluorometer (Photon Technology Int., London, Ontario, Canada). The fluorescence of the papain buffer was taken into account by measuring fluorescence in the absence of tissue and subtracting this value from the fluorescence of the samples.
This method was used because the non-enzymatic cross-link density in collagens was previously quantified with use of papain digest fluorescence. There is a linear relationship between fluorescence and increasing cross-linking activity.
Corneal flaps were soaked in either distilled water or diluted H2O2 (1%) for 20 minutes. Flaps soaked in H2O2 were either rinsed twice with distilled water or removed from H2O2 and placed in 0.1% FeSO4 solution in distilled water for an additional 20 minute soak followed by a 2× rinse with distilled water. Flaps were dried in a vacuum until the weight change became less than 10% (Rotary vane vacuum pump RV3 A652-01-903, BOC Edwards, West Sussex, UK). Each flap was digested for 2.5 hours at 65° C. with 2.5 units/ml of papain (from Papaya latex, Sigma) in 1 ml of papain buffer [BBBS (pH 7.0-7.2), 2 mM L-cysteine and 2 mM EDTA]. Papain digests were centrifuged for 5 seconds at 2200×G (Mini centrifuge 05-090-100, Fisher Scientific), diluted 0.5 times with BBBS and fluorescence of the solutions was measured with excitation of λex=360 nm in a QM-40 Spectrofluorometer (Photon Technology Int., London, Ontario, Canada). The fluorescence of the papain buffer was taken into account by measuring fluorescence in the absence of tissue and subtracting this value from the fluorescence of the samples.
Pig eyes were shipped overnight on ice from an abattoir (SiouxPreme, Sioux City, Iowa), rinsed in saline. Eyes were cleaned and epithelium was removed. […] If specified, eyes were placed in a beaker with a light oxygen stream for 2 minutes in the incubation chamber prior to irradiation. Corneas were pan-corneally irradiated with a top hat beam (3% root mean square) for the chosen time (4 or 8 minutes) with 365-nm light source (UV LED NCSU033B[T]; Nichia Co., Tokushima, Japan) at the chosen irradiance (30 mW/cm^2, pulsed or non-pulsed) which was measured with a power sensor (model PD-300-UV; Ophir, Inc., Jerusalem, Israel) at the corneal surface. Corneal flaps (approximately 200 μm thick) were excised from the eyes with aid of Intralase femtosecond laser (Abbot Medical Optics, Santa Ana, Calif.).

[3] = Solubility of folic acid in phosphate buffer; assay type: physicochemical; settings: pH 7, aqueous buffer, 25° C., pH of the final solution 7.0
Source text: FA is soluble in water with dependence on pH and temperature. […] FA has UV light absorbance at 400 nm and below (the long wave peak at 360 nm as shown in FIG. 16), and fluorescence with maximum around 460 nm (as shown in FIG. 17).

human serum albumin = human serum albumin (Homo sapiens, UniProt P02768); settings: irradiated in the presence of human serum albumin; cited from earlier work
Sequence of human serum albumin (P02768 25-609): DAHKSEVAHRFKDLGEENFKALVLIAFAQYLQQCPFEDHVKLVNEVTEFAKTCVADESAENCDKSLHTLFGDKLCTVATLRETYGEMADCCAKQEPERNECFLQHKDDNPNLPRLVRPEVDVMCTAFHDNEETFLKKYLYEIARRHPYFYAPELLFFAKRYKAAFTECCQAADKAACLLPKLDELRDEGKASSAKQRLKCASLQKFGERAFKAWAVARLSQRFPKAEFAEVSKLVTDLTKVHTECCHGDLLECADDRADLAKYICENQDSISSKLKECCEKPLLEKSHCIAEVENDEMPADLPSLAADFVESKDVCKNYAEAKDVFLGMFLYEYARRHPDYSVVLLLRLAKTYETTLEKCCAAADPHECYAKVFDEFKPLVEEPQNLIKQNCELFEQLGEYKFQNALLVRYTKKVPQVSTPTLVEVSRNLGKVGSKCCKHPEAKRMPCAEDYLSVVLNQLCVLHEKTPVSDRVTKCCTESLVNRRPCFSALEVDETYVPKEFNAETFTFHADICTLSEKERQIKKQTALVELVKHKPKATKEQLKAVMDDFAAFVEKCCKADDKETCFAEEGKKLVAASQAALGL

displacement-force (corneal stiffness) (corneal collagen [1]; UV 365 nm, 30 mW, 4 min): increase of the corneal stiffness
displacement-force (corneal stiffness) (corneal collagen [1]; without UV light): does not cross-link corneal flaps
Molecule: CC(=O)C(C)=O [2,3-butanedione]
fluorescence (relative to the untreated controls, Fo) recorded at 450 nm (corneal collagen [2]; UV 365 nm, 30 mW, 4 min): increase of the corneal stiffness and fluorescence output
fluorescence (relative to the untreated controls, Fo) recorded at 450 nm (corneal collagen [2]; without UV light): does not cross-link corneal flaps

displacement vs. force (corneal stiffening) (corneal collagen [1]; UV 365 nm): significant stiffening
average force vs. displacement of corneal flap (tensiometry) (corneal collagen [1]; vs control group, UVA 30 mW/cm^2, 4 min, CW): higher than the control group
Molecule: Cc1cc2nc3c(=O)[nH]c(=O)nc-3n(C[C@H](O)[C@H](O)[C@H](O)CO)c2cc1C [riboflavin]
fluorescence of the digested corneas in the area 450 nm (corneal collagen [2]; 0.1% in BBBS): elevated fluorescence in the area 450 nm
fluorescence of the corneal samples after digestion with papain (excitation 360 nm) (corneal collagen [2]; UV 365 nm): fluorescence of the cross-linked collagen samples increases

displacement vs. force (corneal stiffening) (corneal collagen [1]; UV 365 nm): significant stiffening
solubility [3]: 5500 µg/mL (≈ 12.5 mM)
Molecule: Nc1nc2ncc(CNc3ccc(C(=O)N[C@@H](CCC(=O)O)C(=O)O)cc3)nc2c(=O)[nH]1 [FA, Folic acid]
fluorescence of the corneal samples after digestion with papain (excitation 360 nm) (corneal collagen [2]; UV 365 nm): fluorescence of the cross-linked collagen samples increases

More lines, now with the values behind:

Molecule: Cc1c(C(=O)NCCO)[n+]([O-])c2ccccc2[n+]1[O-] [Olaquindox, N-(2-hydroxyethyl)-3-methyl-2-quinoxalinecarboxamide 1,4-dioxide]
time to complete disappearance on irradiation (human serum albumin): ≤ 20 s
biaxial extensiometry (corneal collagen stiffness) (corneal collagen [1]; 0.4% in PBS, UVA 30 mW/cm2, 4 min CW or 8 min pulsed + O2, vs controls): became stiffer
relative fluorescence recorded at 450 nm (corneal collagen [2]; 0.4% in PBS, UVA 30 mW/cm2, 4 min CW or 8 min pulsed + O2, vs non-irradiated control): acquired fluorescence at 450 nm

Molecule: hydrogen peroxide [H2O2]
fluorescence counts of papain digested corneal flaps (corneal collagen [2]; flaps soaked 20 min in 1% H2O2, with or without a further 20 min in 0.1% Iron(II) (FeSO4), no UV): not when they were exposed to only H2O2

Molecule: Cc1cc2nc(C(=O)[O-])c(=O)n(C[C@H](O)[C@H](O)[C@H](O)CO)c2cc1C.O.[Na+] [sodium salt of 1,2-Dihydro-6,7-dimethyl-2-keto-1-D-ribityl-3-quinoxalinecarboxylic acid monohydrate]
fluorescence of the digested corneas in the area 450 nm (corneal collagen [2]; 0.1% in BBBS): elevated fluorescence in the area 450 nm
fluorescence of the digested corneal flaps (excitation 360 nm) (corneal collagen [2]; 0.1% in BBBS, de-oxygenated with argon, irradiated 4 min at 30 mW/cm^2 in CO2 atmosphere): higher than the fluorescence of the corneal flaps cross-linked with riboflavin
